Calls of active or inactive are those of the source.
Key:
[1] = target: Voltage-gated inwardly rectifying potassium channel KCNH2 (Homo sapiens, UniProt Q12809); details: Potency;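 also: confirmatory quantitative high-throughput screen measuring inhibition of hERG channel activity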
cells [2] = assay type: functional, cell-based
INS1 = experiment: beta cell apoptosis inhibitors, cytokine rescue, dose response, luminescence, retest (AID 449756); assay type: functional, cell-based; details: Rattus norvegicus;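 also: cell death triggered by IL-1 beta plus TNF-alpha plus IFN-gamma mixture; protective hits raise ATP signal compared with cytokine alone wells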
[3] = target: T1, Type-1 angiotensin II receptor (Homo sapiens, UniProt P30556); experiment: AT1 receptor antagonists, dose response, selectivity assay for APJ receptor antagonist project, cell-based, uHTS hits (AID 463214); assay type: functional;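 also: antagonist potency against angiotensin II stimulated AT1 response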
T1 sequence (P30556 whole entry): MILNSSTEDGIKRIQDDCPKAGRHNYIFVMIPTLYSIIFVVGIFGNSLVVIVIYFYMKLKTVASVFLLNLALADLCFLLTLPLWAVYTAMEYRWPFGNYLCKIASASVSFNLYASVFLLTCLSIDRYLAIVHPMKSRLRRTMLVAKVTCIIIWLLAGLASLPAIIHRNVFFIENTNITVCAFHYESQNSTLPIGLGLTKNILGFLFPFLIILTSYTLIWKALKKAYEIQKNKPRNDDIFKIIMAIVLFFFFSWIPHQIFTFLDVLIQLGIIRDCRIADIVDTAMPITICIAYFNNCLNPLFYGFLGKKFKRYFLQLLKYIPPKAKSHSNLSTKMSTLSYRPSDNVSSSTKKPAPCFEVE

cells [4] = assay type: functional, cell-based; remark: listed apart in the source
Beta-galactosidase = Beta-galactosidase (Escherichia coli, UniProt Q8VNN2); experiment: PubChem AID 485352; assay type: functional
Beta-galactosidase, sequence (Q8VNN2 whole entry): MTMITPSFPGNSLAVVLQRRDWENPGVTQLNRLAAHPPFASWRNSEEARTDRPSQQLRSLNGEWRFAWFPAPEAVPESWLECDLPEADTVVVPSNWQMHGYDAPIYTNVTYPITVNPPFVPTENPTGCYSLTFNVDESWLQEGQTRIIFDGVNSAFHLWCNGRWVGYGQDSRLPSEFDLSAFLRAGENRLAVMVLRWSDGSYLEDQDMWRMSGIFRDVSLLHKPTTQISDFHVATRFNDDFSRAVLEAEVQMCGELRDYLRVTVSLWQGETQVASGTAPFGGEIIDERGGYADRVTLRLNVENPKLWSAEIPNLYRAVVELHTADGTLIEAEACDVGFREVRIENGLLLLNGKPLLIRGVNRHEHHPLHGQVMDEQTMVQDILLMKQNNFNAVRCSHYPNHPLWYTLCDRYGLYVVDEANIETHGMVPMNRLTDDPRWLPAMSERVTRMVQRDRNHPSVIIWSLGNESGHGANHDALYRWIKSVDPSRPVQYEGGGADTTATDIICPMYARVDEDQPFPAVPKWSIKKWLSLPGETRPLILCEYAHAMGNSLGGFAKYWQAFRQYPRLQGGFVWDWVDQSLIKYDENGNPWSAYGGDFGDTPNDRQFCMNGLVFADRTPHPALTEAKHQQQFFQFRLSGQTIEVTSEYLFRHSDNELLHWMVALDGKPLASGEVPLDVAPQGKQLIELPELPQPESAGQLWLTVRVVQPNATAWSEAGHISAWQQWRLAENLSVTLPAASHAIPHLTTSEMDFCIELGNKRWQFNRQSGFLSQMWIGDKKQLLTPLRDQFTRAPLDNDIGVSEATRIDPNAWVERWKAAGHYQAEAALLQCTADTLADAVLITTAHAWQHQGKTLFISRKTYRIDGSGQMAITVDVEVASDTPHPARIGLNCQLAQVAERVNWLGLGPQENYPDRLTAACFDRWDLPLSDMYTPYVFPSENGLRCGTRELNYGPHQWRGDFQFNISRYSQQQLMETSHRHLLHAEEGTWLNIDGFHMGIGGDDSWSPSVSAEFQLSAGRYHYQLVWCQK

Cytochrome P450 3A4 [5] = target: T2, Cytochrome P450 3A4 (Homo sapiens, UniProt P08684)
T2 sequence (P08684 whole entry): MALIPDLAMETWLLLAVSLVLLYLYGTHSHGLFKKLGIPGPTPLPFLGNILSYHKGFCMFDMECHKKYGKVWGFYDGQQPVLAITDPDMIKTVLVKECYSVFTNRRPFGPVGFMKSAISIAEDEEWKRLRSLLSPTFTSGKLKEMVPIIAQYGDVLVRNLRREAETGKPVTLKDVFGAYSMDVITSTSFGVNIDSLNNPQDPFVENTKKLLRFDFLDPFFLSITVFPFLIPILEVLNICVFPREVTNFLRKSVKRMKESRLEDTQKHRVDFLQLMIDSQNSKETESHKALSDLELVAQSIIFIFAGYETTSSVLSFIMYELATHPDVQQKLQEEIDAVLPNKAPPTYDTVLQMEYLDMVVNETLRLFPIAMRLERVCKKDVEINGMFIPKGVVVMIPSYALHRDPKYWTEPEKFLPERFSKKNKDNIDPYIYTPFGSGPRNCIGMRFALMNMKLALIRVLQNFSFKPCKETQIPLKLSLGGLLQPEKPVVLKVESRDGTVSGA

Cytochrome P450 2C9 = Cytochrome P450 2C9 (Homo sapiens, UniProt P11712)
Cytochrome P450 2C9, sequence (P11712 whole entry): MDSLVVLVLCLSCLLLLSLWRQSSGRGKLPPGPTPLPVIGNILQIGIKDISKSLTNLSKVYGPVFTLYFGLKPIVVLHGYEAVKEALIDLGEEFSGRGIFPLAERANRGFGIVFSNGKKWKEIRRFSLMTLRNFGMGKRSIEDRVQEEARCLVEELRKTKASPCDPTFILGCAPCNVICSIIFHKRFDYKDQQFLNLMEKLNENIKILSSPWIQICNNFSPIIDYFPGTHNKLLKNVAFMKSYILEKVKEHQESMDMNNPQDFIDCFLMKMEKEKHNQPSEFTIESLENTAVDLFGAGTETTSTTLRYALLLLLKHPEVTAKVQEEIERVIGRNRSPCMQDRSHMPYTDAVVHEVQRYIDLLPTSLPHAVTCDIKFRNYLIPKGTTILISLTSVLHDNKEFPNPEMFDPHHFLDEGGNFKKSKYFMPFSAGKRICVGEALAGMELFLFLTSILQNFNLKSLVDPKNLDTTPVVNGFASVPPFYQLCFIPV

Cytochrome P450 2C19 = Cytochrome P450 2C19 (Homo sapiens, UniProt P33261); experiment: Cytochrome panel assay with activity outcomes. Panel member name: p450-cyp2c19 Compounds with AC50 equal or less than 10 uM are considered active; assay type: functional; details: read-out: AC50
Cytochrome P450 2C19, sequence (P33261 whole entry): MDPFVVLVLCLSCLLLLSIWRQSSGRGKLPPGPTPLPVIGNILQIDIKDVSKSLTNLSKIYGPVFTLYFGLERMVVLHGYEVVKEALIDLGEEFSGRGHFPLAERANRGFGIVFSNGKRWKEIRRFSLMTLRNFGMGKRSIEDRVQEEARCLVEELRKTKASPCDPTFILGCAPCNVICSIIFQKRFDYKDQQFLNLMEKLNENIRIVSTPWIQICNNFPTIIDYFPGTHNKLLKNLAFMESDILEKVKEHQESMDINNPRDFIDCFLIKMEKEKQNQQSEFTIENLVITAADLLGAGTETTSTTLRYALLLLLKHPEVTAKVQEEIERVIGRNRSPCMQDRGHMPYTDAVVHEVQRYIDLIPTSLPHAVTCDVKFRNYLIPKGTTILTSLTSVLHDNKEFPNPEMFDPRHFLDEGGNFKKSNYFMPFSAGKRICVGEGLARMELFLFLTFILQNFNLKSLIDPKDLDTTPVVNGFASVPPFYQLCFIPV

[6] = target: T3, Adenosylmethionine-8-amino-7-oxononanoate aminotransferase (Mycobacterium tuberculosis, UniProt P9WQ81); experiment: Mycobacterium tuberculosis BioA enzyme inhibitor Measured in Biochemical System Using Plate Reader - 2163-02_Inhibitor_Dose_CherryPick_Activity.; assay type: functional, Mycobacterium tuberculosis UT205
T3 sequence (P9WQ81 whole entry): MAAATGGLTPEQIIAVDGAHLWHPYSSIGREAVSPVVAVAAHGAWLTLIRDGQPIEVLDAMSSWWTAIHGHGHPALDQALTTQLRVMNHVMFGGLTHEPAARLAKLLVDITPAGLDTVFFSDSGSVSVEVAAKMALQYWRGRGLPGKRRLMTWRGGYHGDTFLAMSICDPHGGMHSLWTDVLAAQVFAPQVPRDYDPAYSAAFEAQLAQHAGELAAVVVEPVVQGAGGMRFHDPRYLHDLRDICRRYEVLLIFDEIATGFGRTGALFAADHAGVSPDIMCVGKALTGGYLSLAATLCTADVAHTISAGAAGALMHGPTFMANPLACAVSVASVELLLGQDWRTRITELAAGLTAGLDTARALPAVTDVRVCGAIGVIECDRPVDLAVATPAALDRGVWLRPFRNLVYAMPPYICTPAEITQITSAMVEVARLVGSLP

Cytochrome P450 1A2 = target: T4, Cytochrome P450 1A2 (Homo sapiens, UniProt P05177);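 also: PubChem cytochrome P450 panel assay, CYP1A2 panel member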
T4 sequence (P05177 whole entry): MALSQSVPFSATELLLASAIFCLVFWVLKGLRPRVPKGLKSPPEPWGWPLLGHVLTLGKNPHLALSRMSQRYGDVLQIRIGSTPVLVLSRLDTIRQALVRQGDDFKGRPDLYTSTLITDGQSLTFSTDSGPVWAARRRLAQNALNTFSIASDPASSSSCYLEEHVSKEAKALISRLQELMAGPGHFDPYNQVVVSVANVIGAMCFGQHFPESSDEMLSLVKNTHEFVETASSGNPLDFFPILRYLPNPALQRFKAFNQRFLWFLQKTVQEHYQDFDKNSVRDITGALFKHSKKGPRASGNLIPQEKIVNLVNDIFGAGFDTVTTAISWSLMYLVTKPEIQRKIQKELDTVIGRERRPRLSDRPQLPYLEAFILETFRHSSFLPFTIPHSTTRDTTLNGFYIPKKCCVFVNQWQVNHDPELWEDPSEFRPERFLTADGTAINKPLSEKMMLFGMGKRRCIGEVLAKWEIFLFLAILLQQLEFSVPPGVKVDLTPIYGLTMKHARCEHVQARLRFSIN

[7] = THP-1 cell cytotoxicity, dose response, cytotoxicity control for non-replicating M. tuberculosis project (AID 489025); assay type: functional
cells [8] = assay type: functional
[9] = Vero E6 cell cytotoxicity, dose response, cytotoxicity control for non-replicating M. tuberculosis project, secondary assay (AID 492998); assay type: functional, VeroE6; details: Vero C1008
[10] = inhibitors of intracellular T. cruzi replication, confirmation, NIH3T3 host cells, beta-gal luminescence (AID 2044); assay type: functional, cell-based;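 also: intracellular parasites grown in NIH/3T3 mouse fibroblasts as host cells; luminescent beta-galactosidase reporter signal from transgenic T. cruzi replicating inside host cells; inhibitors lower the luminescence signal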
[11] = cytotoxicity toward NIH3T3 fibroblasts, dose response, counter-screen, cell-based, ATP luminescence, mouse fibroblasts (AID 2010); assay type: functional;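 also: cells exposed to compound for about 90 hours before reading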
[12] = target: Photoreceptor-specific nuclear receptor (Homo sapiens, UniProt Q9Y5X4); assay type: functional, cell-based;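 also: CHO-S cells with Gal4-NCOR and VP16-NR2E3 two-hybrid luciferase reporter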
Photoreceptor-specific nuclear receptor, sequence (Q9Y5X4 whole entry, the tested form may be a part): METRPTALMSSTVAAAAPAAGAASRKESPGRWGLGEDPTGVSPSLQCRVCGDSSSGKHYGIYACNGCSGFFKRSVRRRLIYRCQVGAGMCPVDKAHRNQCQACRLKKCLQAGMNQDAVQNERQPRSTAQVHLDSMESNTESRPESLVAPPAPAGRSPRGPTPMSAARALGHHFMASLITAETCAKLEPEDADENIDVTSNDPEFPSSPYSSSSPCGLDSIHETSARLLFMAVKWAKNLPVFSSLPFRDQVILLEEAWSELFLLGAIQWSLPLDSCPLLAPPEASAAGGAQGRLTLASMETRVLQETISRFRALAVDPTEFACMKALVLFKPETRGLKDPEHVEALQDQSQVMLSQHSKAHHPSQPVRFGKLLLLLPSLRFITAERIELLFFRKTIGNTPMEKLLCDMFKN

Escherichia coli = experiment: microbe, parasite or virus in culture
[13] = target: T5, Microphthalmia-associated transcription factor (Homo sapiens, UniProt O75030); experiment: TRPM1 promoter luciferase signal decrease, dose response, MITF inhibitor project, cell-based, SK-MEL-5, cherry-picked, set 3 (AID 493073); assay type: functional
T5 sequence (O75030 whole entry): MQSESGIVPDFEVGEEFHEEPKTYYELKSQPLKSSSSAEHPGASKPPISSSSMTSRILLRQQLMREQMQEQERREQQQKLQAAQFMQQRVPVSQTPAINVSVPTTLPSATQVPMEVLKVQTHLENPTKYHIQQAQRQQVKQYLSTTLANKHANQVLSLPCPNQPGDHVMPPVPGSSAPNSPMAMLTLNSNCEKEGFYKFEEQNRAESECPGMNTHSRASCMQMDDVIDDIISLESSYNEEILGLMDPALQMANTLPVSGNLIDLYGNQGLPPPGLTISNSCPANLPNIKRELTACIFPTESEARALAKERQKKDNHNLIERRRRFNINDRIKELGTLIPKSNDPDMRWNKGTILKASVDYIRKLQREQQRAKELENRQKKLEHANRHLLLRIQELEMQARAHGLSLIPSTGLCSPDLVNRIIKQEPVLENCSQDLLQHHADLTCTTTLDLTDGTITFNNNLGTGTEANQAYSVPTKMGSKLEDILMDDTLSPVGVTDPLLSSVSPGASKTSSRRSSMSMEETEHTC

[14] = cytotoxicity in HEK-293T cells, dose response, cytotoxicity control for TCR NF-kB inhibitor project, luminescence, T-cell screen hits (AID 489026); assay type: functional, cell-based;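 also: cells exposed to compound about 14 hours before the viability readout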
[15] = target: 26S proteasome non-ATPase regulatory subunit 14 (Homo sapiens, UniProt O00487); experiment: inhibition of proteasome subunit RPN11 – biochemical, fluorescence polarization, uHTS hits, confirmation (AID 602368); assay type: functional
Prothrombin = Prothrombin (Bos taurus, UniProt P00735); experiment: thrombin inhibition, dose response, biochemical, fluorescence polarization, uHTS hits (AID 602369); assay type: functional
[16] = target: Induced myeloid leukemia cell differentiation protein Mcl-1 (Homo sapiens, UniProt Q07820); assay type: functional
Induced myeloid leukemia cell differentiation protein Mcl-1, sequence (Q07820 whole entry): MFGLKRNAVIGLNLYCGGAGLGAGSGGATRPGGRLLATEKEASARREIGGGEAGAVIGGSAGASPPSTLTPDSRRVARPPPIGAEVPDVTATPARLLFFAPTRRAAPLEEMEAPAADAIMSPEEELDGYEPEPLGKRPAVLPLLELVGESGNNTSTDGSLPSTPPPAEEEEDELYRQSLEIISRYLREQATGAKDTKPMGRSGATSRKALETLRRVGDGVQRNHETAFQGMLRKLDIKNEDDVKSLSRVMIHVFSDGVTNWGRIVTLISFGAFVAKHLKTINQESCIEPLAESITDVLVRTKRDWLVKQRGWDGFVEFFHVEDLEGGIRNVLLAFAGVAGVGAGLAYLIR

[17] = target: 72 kDa type IV collagenase (Homo sapiens, UniProt P08253); experiment: Dose Response validation of uHTS RPN11 inhibitor hits using a MMP-2 Fluorescence assay.; assay type: functional
Vero = experiment: cells; assay type: functional, cell-based; details: Chlorocebus sabaeus
[18] = HEp-2 cell cytotoxicity, dose response, cytotoxicity control for RSV inhibitor project, HTS (AID 2410); assay type: functional; details: human respiratory syncytial virus
[19] = target: Glucose-6-phosphate 1-dehydrogenase (Homo sapiens, UniProt P11413); experiment: human G6PD enzyme inhibitors, dose response, selectivity assay for P. falciparum G6PD inhibitor project, biochemical, fluorescence (AID 504792); assay type: functional
Glucose-6-phosphate 1-dehydrogenase, sequence (P11413 whole entry): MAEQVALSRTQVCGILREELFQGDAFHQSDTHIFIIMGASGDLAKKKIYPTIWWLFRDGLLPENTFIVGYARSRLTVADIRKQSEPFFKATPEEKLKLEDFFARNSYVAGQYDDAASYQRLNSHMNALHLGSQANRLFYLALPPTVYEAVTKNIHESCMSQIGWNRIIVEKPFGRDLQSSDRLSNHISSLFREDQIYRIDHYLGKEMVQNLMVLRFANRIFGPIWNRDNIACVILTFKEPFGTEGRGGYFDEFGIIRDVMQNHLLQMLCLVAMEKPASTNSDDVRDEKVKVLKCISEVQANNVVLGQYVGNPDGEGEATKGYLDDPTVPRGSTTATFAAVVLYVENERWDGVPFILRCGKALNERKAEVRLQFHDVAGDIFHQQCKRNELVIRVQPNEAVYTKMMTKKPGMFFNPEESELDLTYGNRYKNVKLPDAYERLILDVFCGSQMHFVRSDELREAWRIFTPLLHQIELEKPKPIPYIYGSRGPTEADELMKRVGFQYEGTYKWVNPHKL

Cytochrome P450 3A4 [20] = target: T2, Cytochrome P450 3A4; details: Potency
Large T antigen = Large T antigen (Simian virus 40, UniProt P03070); assay type: functional, Betapolyomavirus macacae;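 also: Confirmatory-stage PubChem screen for compounds that inhibit SV40 T antigen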

Voltage-gated inwardly rectifying potassium channel KCNH2, sequence (Q12809 whole entry): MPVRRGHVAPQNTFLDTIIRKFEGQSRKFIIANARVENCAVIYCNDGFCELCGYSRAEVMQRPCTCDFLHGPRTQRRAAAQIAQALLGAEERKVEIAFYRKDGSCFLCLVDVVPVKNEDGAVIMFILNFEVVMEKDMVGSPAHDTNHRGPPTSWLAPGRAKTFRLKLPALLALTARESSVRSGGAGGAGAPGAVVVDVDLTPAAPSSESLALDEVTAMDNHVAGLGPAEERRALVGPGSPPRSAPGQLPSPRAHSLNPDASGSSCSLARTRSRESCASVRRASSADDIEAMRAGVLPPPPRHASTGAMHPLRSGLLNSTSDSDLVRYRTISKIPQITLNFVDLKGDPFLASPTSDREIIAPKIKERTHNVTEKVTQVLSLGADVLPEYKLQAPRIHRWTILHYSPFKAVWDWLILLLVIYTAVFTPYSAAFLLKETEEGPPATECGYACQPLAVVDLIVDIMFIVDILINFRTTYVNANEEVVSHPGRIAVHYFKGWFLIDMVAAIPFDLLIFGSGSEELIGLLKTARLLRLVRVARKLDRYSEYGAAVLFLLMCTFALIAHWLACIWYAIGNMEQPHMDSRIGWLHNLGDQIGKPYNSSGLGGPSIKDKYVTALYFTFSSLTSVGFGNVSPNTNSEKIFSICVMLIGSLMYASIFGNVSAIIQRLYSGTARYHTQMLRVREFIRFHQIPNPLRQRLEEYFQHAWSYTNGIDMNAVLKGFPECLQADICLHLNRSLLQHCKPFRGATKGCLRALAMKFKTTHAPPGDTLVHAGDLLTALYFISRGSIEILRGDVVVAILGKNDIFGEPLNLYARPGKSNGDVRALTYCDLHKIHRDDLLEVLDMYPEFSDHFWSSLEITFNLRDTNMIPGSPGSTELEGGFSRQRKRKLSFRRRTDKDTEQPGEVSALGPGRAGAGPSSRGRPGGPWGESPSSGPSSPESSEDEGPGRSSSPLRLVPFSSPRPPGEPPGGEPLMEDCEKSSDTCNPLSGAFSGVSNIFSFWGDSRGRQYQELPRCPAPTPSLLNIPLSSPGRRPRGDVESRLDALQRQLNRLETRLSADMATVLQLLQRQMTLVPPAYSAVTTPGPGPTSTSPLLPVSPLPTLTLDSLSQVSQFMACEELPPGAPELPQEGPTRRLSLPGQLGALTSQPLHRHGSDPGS

## c1ccc2c(N3CCNCC3)cccc2c1
[1]
  AC50: 35.5 µM (inconclusive)

## O=C(Nc1nc(-c2ccccn2)cs1)c1cc(Cl)ccc1[N+](=O)[O-]
Cells [2]
  EC50: > 350 µM (not active)
INS1
  AC50: 1.06 µM (active)
[3]
  IC50: 5.37 µM (active)
Cells [4]
  EC50: 9.68 µM (active)
Beta-galactosidase
  EC50: > 40 µM (inactive)

## CC(C(=O)OCC(=O)c1cccc([N+](=O)[O-])c1)N1C(=O)C2C3C=CC(C3)C2C1=O (configuration not stated)
[3]
  IC50: > 40 µM (not active)
Beta-galactosidase
  EC50: > 40 µM (inactive)

## COc1ccc(C(=O)Nc2ccc(F)cc2F)cc1OC
Cytochrome P450 3A4 [5]
  AC50: 25.1 µM (inconclusive)
Cytochrome P450 2C9
  AC50: inconclusive
Cytochrome P450 2C19
  AC50: 39.8 µM (inconclusive)

## COC(=O)c1c(C(=O)OC)c(-c2ccccc2)n2c1C[S+]([O-])C2 (configuration not stated)
[6]
  AC50: 4.67 µM (active)

## Cn1cccc1C(=O)C(=O)Nc1cccc(Cl)c1Cl
Cytochrome P450 2C9
  AC50: inconclusive

## COC(=O)C1=C(C)N(Cc2ccccc2)C(=NCC(C)C)N[C@H]1c1cccc(F)c1
[3]
  IC50: > 40 µM (not active)
Beta-galactosidase
  EC50: > 40 µM (inactive)

## O=c1c(-c2ccc(Cl)cc2)nc2cnc(N3CCOCC3)nc2n1-c1ccccc1
Cytochrome P450 1A2
  AC50: 2 µM (inconclusive)
Cytochrome P450 2C9
  AC50: inconclusive

## CCN1CCN(c2ccc(S(=O)(=O)N3CCCCC3)cc2NC(=O)c2ccc([N+](=O)[O-])o2)CC1
[7]
  CC50: 19.1 µM (active)
INS1
  AC50: 3.27 µM (active)
Cells [8]
  IC50: 12.8 µM (active)
[9]
  CC50: 16.7 µM (active)
[10]
  EC50: 0.741 µM (active)
[11]
  EC50: 23.8 µM (active)

## CCOc1ccc(CCNC(=O)c2cccnc2N2CCCC2)cc1OCC
[3]
  IC50: > 40 µM (not active)
Beta-galactosidase
  EC50: > 40 µM (inactive)

## CCCCCCc1ccc(-c2ccc(C#N)cc2)cc1
[1]
  AC50: 6.31 µM (inconclusive)

## COc1ccc(OC)c(NC(=O)CSc2nnnn2-c2ccc3c(c2)OCO3)c1
[12]
  IC50: 0.24 µM (active)

## O=S(=O)(NC1CCCCC1)c1ccc(Cl)s1
Escherichia coli
  AC50: 115 µM (active)

## N=C1N=C(N)c2cc3ccccc3cc21
[1]
  AC50: 28.2 µM (inconclusive)

## C=CCn1c(NC(=O)c2ccccc2)nc2ccccc21
Cells [8]
  IC50: 0.68 µM (active)
[9]
  CC50: 17.7 µM (active)

## CC(Oc1ccc2c(-c3ccccc3)cc(=O)oc2c1)C(=O)NCCCN1CCOCC1 (configuration not stated)
Escherichia coli
  AC50: 62.1 µM (active)

## Cc1nc2nc(SCC(=O)N3CCOCC3)nn2c(C)c1Cc1c(F)cccc1Cl
[6]
  AC50: 0.217 µM (active)

## CCC(Sc1nc(C)cc(=O)[nH]1)C(=O)Nc1sc2c(c1C#N)CCCC2 (configuration not stated)
[12]
  IC50: 5.4 µM (active)

## N#C/C(=C\c1ccc(OCc2ccc(C(=O)O)cc2)cc1)C(=O)N1CCOCC1
[13]
  AC50: 1.19 µM (active)
[14]
  IC50: > 80 µM (inactive)

## CCOC(=O)c1c(C)[n+](-c2ccc(C)cc2)c(CC)c2cc(OC)c(OC)cc12
[6]
  AC50: 4.21 µM (active)
[10]
  EC50: 0.292 µM (active)
[11]
  EC50: > 60 µM (not active)

## Cc1ccc(NC(=O)C2CCN(S(=O)(=O)c3c(C)n[nH]c3C)CC2)nc1
Cytochrome P450 2C9
  AC50: inconclusive
Cytochrome P450 2C19
  AC50: 39.8 µM (inconclusive)

## CS(=O)(=O)C1=NSC2=NC(=O)/C(=C\c3cccn3-c3ccccc3Cl)C(=N)N21
[15]
  IC50: 30 µM (active)
Prothrombin
  IC50: 52.6 µM (active)
[16]
  IC50: 4.35 µM (active)
[17]
  IC50: > 100 µM (inactive)

## O=c1c2cccnc2[nH]c(=S)n1CCCN1CCN(c2ccccc2F)CC1
Vero
  IC50: 24.6 µM (active)

## CCOC(=O)c1c(N/C=C(\C#N)c2nc(-c3ccc(OC(C)=O)cc3)cs2)sc2c1CCC2
Escherichia coli
  AC50: 12.3 µM (active)

## C=CCNc1ccccc1S(=O)(=O)NCc1ccccc1
Escherichia coli
  AC50: > 150 µM (inactive)

## COC(=O)C[C@@H]1C[C@@H]2c3cc(NC(=O)c4cccnc4)ccc3O[C@@H]2[C@@H](CO)O1
[6]
  AC50: 13.6 µM (active)

## CCc1ccc(OCC(=O)N/N=C/c2cc([N+](=O)[O-])ccc2N2CCOCC2)cc1
[18]
  CC50: > 50 µM (active)
[19]
  IC50: > 80 µM (inactive)

## O=c1onc2n1-c1cc(Br)ccc1OC2
Cytochrome P450 3A4 [5]
  AC50: 20 µM (inconclusive)
[1]
  AC50: 5.62 µM (inconclusive)

## COc1ccc(C(=O)c2ccc(O)cc2)c(O)c1O [2,3,4'-TRIHYDROXY-4-METHOXYBENZOPHENONE]
Cytochrome P450 3A4 [20]
  AC50: 25.1 µM (inconclusive)

## O=C(O)/C=C/c1ccc(O)c(O)c1 [CAFFEIC ACID]
Large T antigen
  IC50: 7.3 µM (active)
Cytochrome P450 3A4 [20]
  AC50: 25.1 µM (inconclusive)
[1]
  AC50: 2.51 µM (inconclusive)

— ChEMBL document CHEMBL1201862, “PubChem BioAssay data set” (2004)
